The NIST ThermoML archive (doi:10.1016/j.fluid.2016.02.009)
Numbers after ± are expanded uncertainties.

Conditions: Liquid, Vibrating tube method

CCCCOC [butyl methyl ether]
mass density [kg/m3]
Conditions | 308.15 K | 313.15 K | 318.15 K | 323.15 K | 328.15 K | 333.15 K
100 kPa | – | 725.34 ± 0.3 | 720.1 ± 0.3 | 714.8 ± 0.3 | 709.45 ± 0.3 | 704.04 ± 0.3
5000 kPa | – | 731.47 ± 0.33 | 726.46 ± 0.34 | 721.41 ± 0.34 | 716.32 ± 0.34 | 711.19 ± 0.34
10000 kPa | – | 737.11 ± 0.37 | 732.32 ± 0.37 | 727.49 ± 0.38 | 722.64 ± 0.38 | 717.74 ± 0.38
15000 kPa | – | 742.4 ± 0.41 | 737.77 ± 0.41 | 733.12 ± 0.41 | 728.5 ± 0.42 | 723.77 ± 0.42
20000 kPa | – | 747.36 ± 0.45 | 742.89 ± 0.45 | 738.42 ± 0.45 | 733.93 ± 0.45 | 729.38 ± 0.46
25000 kPa | – | 752.04 ± 0.48 | 747.69 ± 0.48 | 743.37 ± 0.49 | 739.05 ± 0.49 | 734.64 ± 0.5
30000 kPa | – | 756.48 ± 0.52 | 752.27 ± 0.53 | 748.07 ± 0.53 | 743.83 ± 0.54 | 739.61 ± 0.54
35000 kPa | 764.79 ± 0.56 | 760.7 ± 0.56 | 756.62 ± 0.57 | 752.53 ± 0.57 | 748.41 ± 0.58 | 744.31 ± 0.59
40000 kPa | 768.74 ± 0.6 | 764.74 ± 0.6 | 760.76 ± 0.61 | 756.76 ± 0.62 | 752.76 ± 0.62 | 748.78 ± 0.63
45000 kPa | 772.53 ± 0.63 | 768.63 ± 0.64 | 764.73 ± 0.65 | 760.83 ± 0.66 | 756.92 ± 0.66 | 753.01 ± 0.67
50000 kPa | 776.18 ± 0.67 | 772.34 ± 0.68 | 768.51 ± 0.69 | 764.7 ± 0.69 | 760.91 ± 0.7 | 757.06 ± 0.71
55000 kPa | 779.69 ± 0.71 | 775.93 ± 0.71 | 772.16 ± 0.72 | 768.43 ± 0.73 | 764.72 ± 0.74 | 760.97 ± 0.75
60000 kPa | 783.07 ± 0.74 | 779.39 ± 0.75 | 775.71 ± 0.76 | 772.05 ± 0.77 | 768.39 ± 0.78 | 764.71 ± 0.78
65000 kPa | 786.36 ± 0.77 | 782.73 ± 0.78 | 779.13 ± 0.79 | 775.54 ± 0.8 | 771.91 ± 0.81 | 768.34 ± 0.82
